In patent US11304957B2, “Substituted quinazolines for inhibiting kinase activity” (NeuPharma, Inc., priority 2013, dated 2022):

Tests used:
Assay type in all cases: biochemical
BTK = BTK (Homo sapiens (Human), UniProt Q06187); test: Z'-LYTE kinase inhibition assay, BTK; settings: read-out: % inhibition BTK; heading: % inhibition BTK; compound at 0.041 μM
Description: (§1) Inhibitory activities of compounds against BTK, EGFR and EGFR mutants (EGFR L858R, EGFR T790M, EGFR L858R/T790M), FGFR1, FGFR2, JAK2, JAK3 and KDR were measured by Invitrogen using Z′-LYTE® Method as briefly described in the following.
(§2) Test Compounds are screened in 1% DMSO (final) in the well. For 10 point titrations, 3-fold serial dilutions are conducted from the starting concentration. All ATP Solutions are diluted to a 4× working concentration in Kinase Buffer (50 mM HEPES pH 7.5, 0.01% BRIJ-35, 10 mM MgCl2, 1 mM EGTA). Peptide/Kinase Mixtures are diluted to a 2× working concentration in the appropriate Kinase Buffers as described below.
(v) Peptide/Kinase Mixtures for Measurement of BTK:
The 2×BTK/Tyr 01 mixture is prepared in 50 mM HEPES pH 7.5, 0.01% BRIJ-35, 10 mM MgCl2, 1 mM EGTA.
The mixture is then incubated for another 60-minute at room temperature for development reaction. Finally fluorescence is read by plate reader.
To determine IC50 of a compound against EGFR, EGFR mutant and other kinases, a series of concentrations of the compound were tested for the inhibition. […] The scale utilized in Table 4 is as follows: +++ less than 100 nM, ++ 100-500 nM and + greater than 500 nM.

JAK2 = JAK2 (Homo sapiens (Human), UniProt O60674); test: Z'-LYTE kinase inhibition assay, JAK2; settings: read-out: % inhibition JAK2; heading: % inhibition JAK2; compound at 0.041 μM
JAK2, sequence (O60674 whole entry): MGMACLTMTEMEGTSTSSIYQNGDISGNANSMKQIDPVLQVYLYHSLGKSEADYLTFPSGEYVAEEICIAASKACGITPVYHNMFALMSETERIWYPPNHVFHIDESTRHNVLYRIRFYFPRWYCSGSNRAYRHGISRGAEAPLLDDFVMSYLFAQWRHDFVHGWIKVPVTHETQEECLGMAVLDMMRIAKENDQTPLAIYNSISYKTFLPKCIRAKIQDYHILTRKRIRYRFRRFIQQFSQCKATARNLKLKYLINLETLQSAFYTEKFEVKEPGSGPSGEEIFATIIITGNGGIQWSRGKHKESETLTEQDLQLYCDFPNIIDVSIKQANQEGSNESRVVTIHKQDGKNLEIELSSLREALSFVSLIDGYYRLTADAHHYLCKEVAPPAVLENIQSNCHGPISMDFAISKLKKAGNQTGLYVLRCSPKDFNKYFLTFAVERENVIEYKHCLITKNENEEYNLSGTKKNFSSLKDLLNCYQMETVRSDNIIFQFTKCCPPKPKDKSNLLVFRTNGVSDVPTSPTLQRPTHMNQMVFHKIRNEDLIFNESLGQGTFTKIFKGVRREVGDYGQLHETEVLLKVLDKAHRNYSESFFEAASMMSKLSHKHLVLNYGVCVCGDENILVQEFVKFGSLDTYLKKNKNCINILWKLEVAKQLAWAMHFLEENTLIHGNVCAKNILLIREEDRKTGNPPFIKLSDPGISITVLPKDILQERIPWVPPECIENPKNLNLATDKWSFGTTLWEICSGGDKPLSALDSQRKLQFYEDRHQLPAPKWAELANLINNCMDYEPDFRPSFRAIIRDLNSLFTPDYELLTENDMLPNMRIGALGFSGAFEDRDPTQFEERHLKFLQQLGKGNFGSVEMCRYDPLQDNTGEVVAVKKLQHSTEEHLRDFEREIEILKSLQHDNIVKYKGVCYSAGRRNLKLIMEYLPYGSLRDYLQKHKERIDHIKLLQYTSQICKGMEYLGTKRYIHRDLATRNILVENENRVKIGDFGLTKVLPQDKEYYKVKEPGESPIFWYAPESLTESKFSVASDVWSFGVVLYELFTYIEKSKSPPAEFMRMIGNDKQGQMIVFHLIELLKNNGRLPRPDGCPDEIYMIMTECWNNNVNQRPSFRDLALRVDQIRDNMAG
Description: as §1, §2
(v) Peptide/Kinase Mixtures for Measurement of JAK2:
The 2×JAK2/Tyr 06 mixture is prepared in 50 mM HEPES pH 7.5, 0.01% BRIJ-35, 10 mM MgCl2, 1 mM EGTA. The final 10 μL Kinase Reaction consists of 0.06-0.81 ng JAK2 and 2 μM Tyr 06 in 50 mM HEPES pH 7.5, 0.01% BRIJ-35, 10 mM MgCl2, 1 mM EGTA. After the 1 hour Kinase Reaction incubation, 5 μL of a 1:64 dilution of Development Reagent A is added.
Reaction starts by 30-second shaking of mixture consisting of 2.5 μL 4× test compound, 5 μL 2× kinase reaction mixture and 2.5 μL 4×ATP Solution on Bar-coded Corning, low volume NBS, black 384-well plate (Corning Cat. #3676). Then the mixture is incubated for 60-minute at room temperature for the kinase reaction, followed by addition of 5 μL of a 1:1024 dilution of development reagent A and 30-second plate shake. The mixture is then incubated for another 60-minute at room temperature for development reaction. Finally fluorescence is read by plate reader.

EGFR (ErbB1) T790M L858R = EGFR (ErbB1) T790M L858R (Homo sapiens (Human), UniProt P00533, L858R/T790M); test: Z'-LYTE kinase inhibition assay, EGFR L858R/T790M; settings: for inhibition at 0.0137 µM: read-out: % inhibition EGFR L858R/T790M (Compound at 0.0137 μM)
EGFR (ErbB1) T790M L858R, sequence (P00533 25-1210 T790M/L858R): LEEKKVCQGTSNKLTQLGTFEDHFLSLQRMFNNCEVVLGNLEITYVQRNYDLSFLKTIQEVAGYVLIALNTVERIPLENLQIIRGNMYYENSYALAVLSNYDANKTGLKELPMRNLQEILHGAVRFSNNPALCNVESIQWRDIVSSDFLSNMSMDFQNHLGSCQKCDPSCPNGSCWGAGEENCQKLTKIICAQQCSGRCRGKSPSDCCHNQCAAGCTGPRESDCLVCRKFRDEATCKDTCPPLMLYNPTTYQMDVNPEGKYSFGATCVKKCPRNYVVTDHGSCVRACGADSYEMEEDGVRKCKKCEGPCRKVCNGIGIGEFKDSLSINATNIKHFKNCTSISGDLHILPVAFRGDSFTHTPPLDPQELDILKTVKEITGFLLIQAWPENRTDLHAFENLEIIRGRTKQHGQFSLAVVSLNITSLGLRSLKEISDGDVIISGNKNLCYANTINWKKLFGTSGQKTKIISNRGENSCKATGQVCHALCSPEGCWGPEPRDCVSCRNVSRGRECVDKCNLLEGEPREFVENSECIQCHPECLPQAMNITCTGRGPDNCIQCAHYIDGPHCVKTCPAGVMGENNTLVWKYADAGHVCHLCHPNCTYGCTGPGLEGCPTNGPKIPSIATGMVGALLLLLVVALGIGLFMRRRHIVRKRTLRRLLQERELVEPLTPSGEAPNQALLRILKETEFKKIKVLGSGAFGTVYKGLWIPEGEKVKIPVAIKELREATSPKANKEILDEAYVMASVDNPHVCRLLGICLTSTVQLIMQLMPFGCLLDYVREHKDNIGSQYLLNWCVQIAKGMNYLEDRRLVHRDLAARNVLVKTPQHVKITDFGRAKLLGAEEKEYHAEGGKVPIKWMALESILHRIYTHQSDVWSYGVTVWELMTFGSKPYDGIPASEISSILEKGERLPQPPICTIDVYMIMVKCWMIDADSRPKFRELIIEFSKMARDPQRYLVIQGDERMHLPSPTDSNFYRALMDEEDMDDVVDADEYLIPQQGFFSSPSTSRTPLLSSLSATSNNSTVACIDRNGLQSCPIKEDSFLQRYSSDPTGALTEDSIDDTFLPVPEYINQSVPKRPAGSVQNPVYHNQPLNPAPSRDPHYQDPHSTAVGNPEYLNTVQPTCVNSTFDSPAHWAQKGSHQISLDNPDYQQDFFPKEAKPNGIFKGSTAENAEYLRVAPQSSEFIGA
Description: Inhibitory activities of compounds against BTK, EGFR and EGFR mutants (EGFR L858R, EGFR T790M, EGFR L858R/T790M), FGFR1, FGFR2, JAK2, JAK3 and KDR were measured by Invitrogen using Z'-LYTE® Method as briefly described in the following. Test Compounds are screened in 1% DMSO (final) in the well. For 10 point titrations, 3-fold serial dilutions are conducted from the starting concentration. All ATP Solutions are diluted to a 4× working concentration in Kinase Buffer (50 mM HEPES pH 7.5, 0.01% BRIJ-35, 10 mM MgCl2, 1 mM EGTA). Peptide/Kinase Mixtures are diluted to a 2× working concentration in the appropriate Kinase Buffers as described below. (iv) Peptide/Kinase Mixtures for Measurement of EGFR (ErbB1) T790M L858R: The 2×EGFR (ErbB1) […] mixture is prepared in 50 mM HEPES pH 6.5, 0.01% BRIJ-35, 10 mM MgCl2, 1 mM EGTA, 0.02% NaN3. […] After the 1 hour Kinase Reaction incubation, 5 μL of a 1:64 dilution of Development Reagent B is added. Reaction starts by 30-second shaking of mixture consisting of 2.5 μL 4× test compound, 5 μL 2× kinase reaction mixture and 2.5 μL 4×ATP Solution on Bar-coded Corning, low volume NBS, black 384-well plate (Corning Cat. #3676). Then the mixture is incubated for 60-minute at room temperature for the kinase reaction, followed by addition of 5 μL of a 1:1024 dilution of development reagent A and 30-second plate shake. The mixture is then incubated for another 60-minute at room temperature for development reaction. Finally fluorescence is read by plate reader. To determine IC50 of a compound against EGFR, EGFR mutant and other kinases, a series of concentrations of the compound were tested for the inhibition.

BTK, sequence (Q06187 whole entry): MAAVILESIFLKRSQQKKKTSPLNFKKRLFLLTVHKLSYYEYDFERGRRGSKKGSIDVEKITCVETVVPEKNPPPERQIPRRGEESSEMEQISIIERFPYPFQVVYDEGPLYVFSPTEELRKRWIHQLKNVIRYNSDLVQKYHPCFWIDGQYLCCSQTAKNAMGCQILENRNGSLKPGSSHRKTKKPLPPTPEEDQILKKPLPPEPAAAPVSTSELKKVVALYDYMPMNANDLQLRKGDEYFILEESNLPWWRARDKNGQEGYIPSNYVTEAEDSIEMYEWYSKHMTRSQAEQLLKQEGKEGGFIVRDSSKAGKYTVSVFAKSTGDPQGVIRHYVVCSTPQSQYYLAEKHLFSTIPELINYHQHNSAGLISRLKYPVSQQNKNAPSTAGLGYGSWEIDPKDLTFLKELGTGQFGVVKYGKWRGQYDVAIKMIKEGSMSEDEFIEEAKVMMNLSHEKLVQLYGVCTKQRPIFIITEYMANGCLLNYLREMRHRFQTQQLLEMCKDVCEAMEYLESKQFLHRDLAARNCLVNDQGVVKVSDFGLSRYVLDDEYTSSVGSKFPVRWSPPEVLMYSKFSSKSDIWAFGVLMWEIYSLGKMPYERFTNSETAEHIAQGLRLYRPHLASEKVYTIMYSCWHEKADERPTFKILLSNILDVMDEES

inhibition at 0.041 µM (BTK) [%]	Compound	further results
> 50	C=CC(=O)Nc1cccc(-c2cccc3cnc(Nc4ccc(OCCN(C)C)cc4)nc23)c1 [Example C110, N-(3-(2-((4-(2-(dimethylamino)ethoxy)phenyl)amino)quinazolin-8-yl)phenyl)acrylamide]	
< 50	Clc1ccccc1-c1cccc2cnc(Nc3ccc(N4CCNCC4)cc3)nc12 [Example C026, 8-(2-chlorophenyl)-N-(4-(piperazin-1-yl)phenyl)quinazolin-2-amine]	
> 50	CC(=O)Nc1cccc(-c2cccc3cnc(Nc4ccc(N5CCN(C)CC5)cc4)nc23)c1 [Example C022, N-(3-(2-((4-(4-methylpiperazin-1-yl)phenyl)amino)quinazolin-8-yl)phenyl)acetamide]	inhibition at 0.041 µM (JAK2): > 50%
	C=CC(=O)Nc1cccc(-c2cccc3cnc(Nc4ccc(N5CCN(C)CC5)c(C(N)=O)c4)nc23)c1 [Example C085, 5-((8-(3-acrylamidophenyl)quinazolin-2-yl)amino)-2-(4-methylpiperazin-1-yl)benzamide]	inhibition at 0.0137 µM (EGFR (ErbB1) T790M L858R): > 50%
> 50	C=CC(=O)Nc1cccc(-c2cccc3cnc(Nc4ccc(O[C@H]5CCN(C)C5)cc4)nc23)c1 [Example C121, (S)-N-(3-(2-((4-((1-methylpyrrolidin-3-yl)oxy)phenyl)amino)quinazolin-8-yl)phenyl)acrylamide]	
> 50	C=CC(=O)Nc1cccc(-c2cccc3cnc(Nc4ccc(O[C@H]5CCOC5)cc4)nc23)c1 [Example C113, (S)-N-(3-(2-((4-((tetrahydrofuran-3-yl)oxy)phenyl)amino)quinazolin-8-yl)phenyl)acrylamide]	
> 50	C=CC(=O)Nc1cccc(-c2cccc3cnc(Nc4ccc(N5CCNC(=O)C5)cc4)nc23)c1 [Example C117, N-(3-(2-((4-(3-oxopiperazin-1-yl)phenyl)amino)quinazolin-8-yl)phenyl)acrylamide]	
> 50	C=CC(=O)Nc1cccc(-c2c(C)ccc3cnc(Nc4ccc(N5CCOCC5)cc4)nc23)c1 [Example C033, N-(3-(7-methyl-2-((4-morpholinophenyl)amino)quinazolin-8-yl)phenyl)acrylamide]	inhibition at 0.041 µM (JAK2): < 50%
< 50	c1ccc(-c2cccc3cnc(Nc4ccc(N5CCOCC5)cc4)nc23)cc1 [Example C004, N-(4-morpholinophenyl)-8-phenylquinazolin-2-amine]	inhibition at 0.041 µM (JAK2): > 50%
> 50	C=CC(=O)Nc1cccc(-c2cccc3cnc(Nc4ccc(OC5CN(C(C)=O)C5)cc4)nc23)c1 [Example C122, N-(3-(2-((4-((1-acetylazetidin-3-yl)oxy)phenyl)amino)quinazolin-8-yl)phenyl)acrylamide]	
	C=CC(=O)Nc1cccc(-c2c(C)ccc3cnc(Nc4ccc(N5CCN(C)CC5)cc4)nc23)c1 [Example C034, N-(3-(7-methyl-2-((4-(4-methylpiperazin-1-yl)phenyl)amino)quinazolin-8-yl)phenyl)acrylamide]	inhibition at 1 µM (EGFR (ErbB1) T790M L858R; read-out: % inhibition EGFR L858R/T790M (Compound at 1 μM)): > 50%
> 50	C=CC(=O)Nc1cccc(-c2cccc3cnc(Nc4ccc(OCCN5CCC5)cc4)nc23)c1 [Example C109, N-(3-(2-((4-(2-(azetidin-1-yl)ethoxy)phenyl)amino)quinazolin-8-yl)phenyl)acrylamide]	
< 50	Fc1cccc(-c2cccc3cnc(Nc4ccc(N5CCOCC5)cc4)nc23)c1 [Example C009, 8-(3-fluorophenyl)-N-(4-morpholinophenyl)quinazolin-2-amine]	
> 50	C=CC(=O)Nc1cccc(-c2cccc3cnc(Nc4ccc(OC5CCN(C(C)=O)CC5)cc4)nc23)c1 [Example C125, N-(3-(2-((4-((1-acetylpiperidin-4-yl)oxy)phenyl)amino)quinazolin-8-yl)phenyl)acrylamide]	
> 50	C=CC(=O)Nc1cccc(-c2cccc3cnc(Nc4ccc(NC5CCN(C(C)=O)CC5)cc4)nc23)c1 [Example C120, N-(3-(2-((4-((1-acetylpiperidin-4-yl)amino)phenyl)amino)quinazolin-8-yl)phenyl)acrylamide]	
	C=CC(=O)Nc1cccc(-c2cccc3cnc(Nc4ccc(N5CCN(C)CC5)nc4)nc23)c1 [Example C041, N-(3-(2-((6-(4-methylpiperazin-1-yl)pyridin-3-yl)amino)quinazolin-8-yl)phenyl)acrylamide]	inhibition at 0.0137 µM (EGFR (ErbB1) T790M L858R): > 50%
> 50	C=CC(=O)Nc1cccc(-c2cccc3cnc(Nc4ccc(N[C@@H]5CCOC5)cc4)nc23)c1 [Example C115, (R)-N-(3-(2-((4-((tetrahydrofuran-3-yl)amino)phenyl)amino)quinazolin-8-yl)phenyl)acrylamide]	
	C=CC(=O)Nc1cccc(-c2cccc3cnc(Nc4ccc(OC5CCN(C)CC5F)cc4)nc23)c1 (stereo not drawn) [Example C079, N-(3-(2-((4-((3-fluoro-1-methylpiperidin-4-yl)oxy)phenyl)amino)quinazolin-8-yl)phenyl)acrylamide]	inhibition at 0.0137 µM (EGFR (ErbB1) T790M L858R): > 50%
> 50	C=CC(=O)Nc1cccc(-c2cccc3cnc(Nc4ccc(NC5CCN(C)CC5)cc4)nc23)c1 [Example C118, N-(3-(2-((4-((1-methylpiperidin-4-yl)amino)phenyl)amino)quinazolin-8-yl)phenyl)acrylamide]	
> 50	C=CC(=O)Nc1cccc(-c2cccc3cnc(Nc4ccc(OC5CCN(C)CC5)cc4)nc23)c1 [Example C126, N-(3-(2-((4-((1-methylpiperidin-4-yl)oxy)phenyl)amino)quinazolin-8-yl)phenyl)acrylamide]	
	C=CC(=O)Nc1cccc(-c2cccc3cnc(Nc4ccc(NC5CCN(C)CC5F)cc4)nc23)c1 (stereo not drawn) [Example C105, N-(3-(2-((4-((3-fluoro-1-methylpiperidin-4-yl)amino)phenyl)amino)quinazolin-8-yl)phenyl)acrylamide]	inhibition at 0.0137 µM (EGFR (ErbB1) T790M L858R): > 50%
> 50	C=CC(=O)Nc1cccc(-c2cccc3cnc(Nc4ccc(NC5CN(C(C)=O)C5)cc4)nc23)c1 [Example C124, N-(3-(2-((4-((1-acetylazetidin-3-yl)amino)phenyl)amino)quinazolin-8-yl)phenyl)acrylamide]	
> 50	C=CC(=O)Nc1cccc(-c2cccc3cnc(Nc4ccc(O[C@@H]5CCOC5)cc4)nc23)c1 [Example C119, (R)-N-(3-(2-((4-((tetrahydrofuran-3-yl)oxy)phenyl)amino)quinazolin-8-yl)phenyl)acrylamide]	
> 50	C=CC(=O)Nc1cccc(-c2cccc3cnc(Nc4ccc(O[C@@H]5CCN(C)C5)cc4)nc23)c1 [Example C123, (R)-N-(3-(2-((4-((1-methylpyrrolidin-3-yl)oxy)phenyl)amino)quinazolin-8-yl)phenyl)acrylamide]	
